In PMC9598282 (Antibiotics, 2022):
Converted amounts (≈) assume the structure as drawn. Like-named read-outs stand apart in the source and are kept apart here. Bridge positions count the residues as written; N and C are the ends. Square brackets hold non-standard residues; d marks the D form. Peptide text beside a SMILES is read from it. Dab = NCC[C@H](N)C(=O)O

Key:
[1] = system: P. aeruginosa PA 86052; format: cell-based, Pseudomonas aeruginosa; settings: PA 86052, 18 h
Method: (§1) The adjuvant properties of the guanidinylated polymyxins were evaluated using the checkerboard assay as previously described. The bacterial solution was prepared as described in the antimicrobial susceptibility assay. The antibiotic of interest and the adjuvant were serially diluted two-fold along the x- and y-axis on a 96-well plate, respectively, resulting in varying concentrations of both agents in each well. Equal volumes of bacterial solution were added to the designated wells. The well consisting of bacterial solution served as the positive control, while the wells containing only media served as the negative control. The plate was then incubated at 37 °C for 18 h. After incubation, an Emax Plus microplate reader (Molecular Devices, Union City, CA, USA) was used to measure the OD at a wavelength of 590 nm to confirm the turbidity. The fractional inhibitory concentration (FIC) index was then determined to establish the relationship between the antibiotic and adjuvant. The FIC index corresponds to the sum of the FICs of the antibiotic and adjuvant. The FIC of each agent is calculated by dividing its MIC when it is used in combination by its MIC when used alone. FIC indices ≤0.5, 0.5 < x ≤ 4 and >4 indicate synergy, additivity and antagonism, respectively.

[2] = system: P. aeruginosa PA 107092; format: cell-based, Pseudomonas aeruginosa
Method: as §1

[3] = system: P. aeruginosa PA 109084; format: cell-based, Pseudomonas aeruginosa
Method: as §1

[4] = system: P. aeruginosa PA 88949; format: cell-based, Pseudomonas aeruginosa
Method: as §1

[5] = system: E. cloacae 118564; experiment: Checkerboard assay; format: cell-based, Enterobacter cloacae
Method: as §1

[6] = system: E. coli ATCC 25922; format: cell-based, Escherichia coli; settings: ATCC 25922, 18 h
Method: (§2) For the preparation of the bacterial solution, overnight grown culture was diluted in 0.85% saline solution, adjusted to 0.5 McFarland turbidity and further diluted in Mueller–Hinton broth for inoculation to a final concentration of 5 × 10^5 colony forming units/mL (CFU/mL). The agents were serially diluted two-fold in a 96-well plate, and equal volumes of bacterial solution were subsequently added to the designated wells. The well consisting of bacterial solution served as the positive control, while the well containing only media served as the negative control. The plate was then incubated at 37 °C for 18 h. After incubation, an Emax Plus microplate reader (Molecular Devices, Union City, CA, USA) was used to measure the optical density (OD) at a wavelength of 590 nm to confirm the turbidity. The antibacterial activity corresponded to the MIC, which is defined as the lowest concentration of the agent necessary to inhibit visible bacterial growth.

[7] = system: A. baumannii 110193; experiment: microbe, parasite or virus in culture; format: cell-based, Acinetobacter baumannii
Summary of the method: (§3)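 Antibiotic and guanidinylated polymyxin adjuvant were two-fold serially diluted across perpendicular axes, combined with bacterial suspension and incubated 18 h at 37 °C. Turbidity was read as OD590. FIC index is the sum of each agent's MIC in combination divided by its MIC alone: ≤0.5 synergy, 0.5–4 additivity, >4 antagonism.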

[8] = system: A. baumannii 92247; experiment: microbe, parasite or virus in culture; format: cell-based, Acinetobacter baumannii
Summary of the method: as §3

[9] = system: A. baumannii AB027; experiment: microbe, parasite or virus in culture; format: cell-based, Acinetobacter baumannii
Summary of the method: as §3

[10] = system: E. coli 94474; experiment: Checkerboard assay; format: cell-based, Escherichia coli
Method: as §1

[11] = system: E. coli 94393; experiment: Checkerboard assay; format: cell-based, Escherichia coli
Method: as §1

[12] = system: K. pneumoniae 113250; experiment: Checkerboard assay; format: cell-based, Klebsiella pneumoniae
Method: as §1

[13] = system: K. pneumoniae 113254; experiment: Checkerboard assay; format: cell-based, Klebsiella pneumoniae
Method: as §1

[14] = system: E. coli 107115; experiment: microbe, parasite or virus in culture; format: cell-based, Escherichia coli
Method: as §1

[15] = system: P. aeruginosa 114228; format: cell-based, Pseudomonas aeruginosa; settings: 114228, 18 h
Method: as §2

[16] = system: P. aeruginosa PAO1; format: cell-based, Pseudomonas aeruginosa; settings: wild-type
Method: as §2

[17] = system: E. cloacae 121187; experiment: microbe, parasite or virus in culture; format: cell-based, Enterobacter cloacae
Method: as §1

[18] = system: P. aeruginosa PA 86052; experiment: MIC, broth microdilution; format: cell-based, Pseudomonas aeruginosa; settings: β-lactamase harboring isolate
Method: as §2

[19] = system: P. aeruginosa PA 107092; experiment: MIC, broth microdilution; format: cell-based, Pseudomonas aeruginosa; settings: β-lactamase harboring isolate
Method: as §2

[20] = system: P. aeruginosa PA 109084; experiment: MIC, broth microdilution; format: cell-based, Pseudomonas aeruginosa; settings: β-lactamase harboring isolate
Method: as §2

[21] = system: P. aeruginosa PA 108590; experiment: MIC, broth microdilution; format: cell-based, Pseudomonas aeruginosa; settings: β-lactamase harboring isolate
Method: as §2

[22] = system: P. aeruginosa PA 88949; experiment: MIC, broth microdilution; format: cell-based, Pseudomonas aeruginosa; settings: β-lactamase harboring isolate
Method: as §2

[23] = with 8 μM avibactam, adjuvant at 2 (PMBN, GCol), 1 (GPMB) μg/mL
[24] = adjuvant at 0.5 μg/mL as printed
[25] = agent alone, one value per checkerboard plate

Compound: CC(C)C[C@@H]1NC(=O)[C@@H](Cc2ccccc2)NC(=O)[C@H](CCN)NC(=O)[C@@H](NC(=O)[C@H](CCN)NC(=O)[C@@H](N)[C@@H](C)O)CCNC(=O)[C@H]([C@@H](C)O)NC(=O)[C@H](CCN)NC(=O)[C@H](CCN)NC1=O [PMBN, polymyxin B nonapeptide] (H-T[Dab][Dab][Dab][dF]L[Dab][Dab]T; lactam 3-C (inferred); N-terminus assumed)
- MIC adjuvant alone [1]: 16 µM
- MIC adjuvant alone ([2]; PA 107092, 18 h): 56 µM
- Fold potentiation of aztreonam ([2]; adjuvant at 2 μg/mL as printed): 4
- Fold potentiation of ceftazidime ([2]; adjuvant at 2 (PMBN, GCol), 1 (GPMB) μg/mL): 8
- Fold potentiation of aztreonam [2, 23]: 4
- Fold potentiation of ceftazidime [2, 23]: 8
- MIC adjuvant alone ([3]; PA 109084, 18 h): 56 µM
- Fold potentiation of ceftazidime ([3]; adjuvant at 1 μg/mL as printed): 16
- Fold potentiation of aztreonam ([3]; adjuvant at 1 (PMBN, GCol), 0.5 (GPMB) μg/mL as printed): 16
- Fold potentiation of ceftazidime ([3]; with 8 μM avibactam, adjuvant at 2 μg/mL as printed): 4
- Fold potentiation of aztreonam ([3]; with 8 μM avibactam, adjuvant at 2 (PMBN), 0.5 (GCol, GPMB) μg/mL as printed): 16
- MIC adjuvant alone ([4]; PA 88949, 18 h): 16 µM
- Fold potentiation of aztreonam [4, 24]: 1
- Fold potentiation of ceftazidime [4, 24]: 1
- MIC alone [5, 25]: > 256 µg/mL
- Fold-potentiation of erythromycin ([5]; with 8 μg/mL adjuvant): 4
- Fold-potentiation of rifampicin ([5]; with 8 μg/mL adjuvant): 8
- MIC [6]: >256 µg/mL
- MIC alone ([7]; 110193, 18 h): 256 µg/mL
- MIC alone [7, 25]: > 256 µg/mL
- Fold-potentiation of ceftazidime ([7]; with 1 μg/mL adjuvant): 1
- Fold-potentiation of erythromycin ([7]; with 1 μg/mL adjuvant): 4
- Fold-potentiation of rifampicin ([7]; with 1 μg/mL adjuvant): 32
- MIC alone ([8]; 92247, 18 h): 256 µg/mL
- Fold potentiation of aztreonam ([8]; with 8 μg/mL adjuvant): 1
- Fold-potentiation of ceftazidime ([8]; with 8 μg/mL adjuvant): 1
- Fold-potentiation of erythromycin ([8]; with 8 μg/mL adjuvant): 1
- Fold-potentiation of rifampicin ([8]; with 8 μg/mL adjuvant): 32
- MIC alone ([9]; AB027, 18 h): 256 µg/mL
- MIC alone [9, 25]: > 256 µg/mL
- Fold potentiation of aztreonam ([9]; with 8 μg/mL adjuvant): 2
- Fold-potentiation of ceftazidime ([9]; with 8 μg/mL adjuvant): 2
- Fold-potentiation of erythromycin ([9]; with 8 μg/mL adjuvant): 16
- Fold-potentiation of rifampicin ([9]; with 8 μg/mL adjuvant): 64
- MIC alone [10, 25]: > 256 µg/mL
- Fold-potentiation of erythromycin ([10]; with 4 μg/mL adjuvant): 1
- Fold-potentiation of rifampicin ([10]; with 4 μg/mL adjuvant): 8
- MIC alone [11, 25]: > 256 µg/mL
- Fold-potentiation of erythromycin ([11]; with 2 μg/mL adjuvant): 8
- Fold-potentiation of rifampicin ([11]; with 2 μg/mL adjuvant): 8
- MIC alone [12, 25]: > 256 µg/mL
- Fold-potentiation of erythromycin ([12]; with 8 μg/mL adjuvant): 8
- Fold-potentiation of rifampicin ([12]; with 8 μg/mL adjuvant): 8
- MIC alone [13, 25]: > 256 µg/mL
- Fold-potentiation of erythromycin ([13]; with 8 μg/mL adjuvant): 4
- Fold-potentiation of rifampicin ([13]; with 8 μg/mL adjuvant): 4
- MIC alone ([14]; 107115, 18 h): < 256 µg/mL
- MIC alone [14, 25]: > 256 µg/mL
- Fold-potentiation of erythromycin ([14]; with 1 μg/mL adjuvant): 32
- Fold-potentiation of rifampicin ([14]; with 1 μg/mL adjuvant): 512
- Fold-potentiation of ceftazidime ([14]; with 2 μg/mL adjuvant): 32
- MIC [15]: >256 µg/mL
- MIC [16]: 128 µg/mL (≈ 133 µM)
- MIC alone ([17]; 121187, 18 h): 256 µg/mL
- MIC alone [17, 25]: > 256 µg/mL
- Fold-potentiation of erythromycin ([17]; with 8 μg/mL adjuvant): 1
- Fold-potentiation of rifampicin ([17]; with 8 μg/mL adjuvant): 1
- MIC [18]: 16 µg/mL (≈ 16.6 µM)
- MIC [19]: 64 µg/mL (≈ 66.4 µM)
- MIC [20]: 32 µg/mL (≈ 33.2 µM)
- MIC [21]: 1 µg/mL (≈ 1.04 µM)
- MIC [22]: 16 µg/mL (≈ 16.6 µM)
